Laboratory results published in the Kinase Knowledgebase extract (Sharma et al. 2016).

Biological target: MAPK14 (UniProt Q16539)
Assay: Inhibition of MAPK14 Kinase Activity

MAPK14, sequence (Q16539 whole entry, looked up): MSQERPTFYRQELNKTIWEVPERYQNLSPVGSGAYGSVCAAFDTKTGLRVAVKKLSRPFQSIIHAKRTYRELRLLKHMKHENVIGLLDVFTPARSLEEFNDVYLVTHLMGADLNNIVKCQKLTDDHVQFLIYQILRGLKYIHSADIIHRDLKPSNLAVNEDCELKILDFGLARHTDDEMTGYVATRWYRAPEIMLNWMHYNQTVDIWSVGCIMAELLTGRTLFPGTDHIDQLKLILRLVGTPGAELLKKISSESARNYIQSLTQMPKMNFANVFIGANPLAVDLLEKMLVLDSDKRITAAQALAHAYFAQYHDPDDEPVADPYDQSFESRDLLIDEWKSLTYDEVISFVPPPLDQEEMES

| SMILES | IC50 [µM] |
| --- | --- |
| Nc1ccc2c(-c3c(-c4ccccn4)nn4c3CCC4)ccnc2c1 | 2.57 |
| O=C(Nc1ccc2c(-c3c(-c4ccccn4)nn4c3CCC4)ccnc2c1)Nc1ccc2c(-c3c(-c4ccccn4)nn4c3CCC4)ccnc2c1 | 4.64 |
| CN(C)CCC(=O)Nc1ccc2c(-c3c(-c4ccccn4)nn4c3CCC4)ccnc2c1 | 2.46 |
| CN(C)CC(=O)Nc1ccc2c(-c3c(-c4ccccn4)nn4c3CCC4)ccnc2c1 | 1.46 |
| O=C(NCCO)Nc1ccc2c(-c3c(-c4ccccn4)nn4c3CCC4)ccnc2c1 | 1.08 |
| CN(C)CCNC(=O)Nc1ccc2c(-c3c(-c4ccccn4)nn4c3CCC4)ccnc2c1 | 0.867 |
| COCCNC(=O)Nc1ccc2c(-c3c(-c4ccccn4)nn4c3CCC4)ccnc2c1 | 1.05 |
| O=C(Nc1ccc2c(-c3c(-c4ccccn4)nn4c3CCC4)ccnc2c1)OCCO | 0.616 |
| CC(=O)Nc1ccc2c(-c3c(-c4ccccn4)nn4c3CCC4)ccnc2c1 | 1.34 |
| O=C1OCCN1c1ccc2c(-c3c(-c4ccccn4)nn4c3CCC4)ccnc2c1 | 2.06 |
| COC(=O)Nc1ccc2c(-c3c(-c4ccccn4)nn4c3CCC4)ccnc2c1 | 0.526 |
